Measured values from the NIST ThermoML archive (doi:10.1016/j.jct.2018.05.016).
± gives the expanded uncertainty stated by the source.

Test: mn = molality of the nth substance listed, in mol/kg
Conditions: 100 kPa, Liquid; for speed of sound: Frequency=3 MHz, Single path-length method; for mass density: Vibrating tube method

O [water] + OCCOCCO
Conditions | speed of sound [m/s]
303.15 K, m2 = 0 | 1508.5 ± 2

OCCOCCOCCO [triethylene glycol] + O
Conditions | mass density, m1 = 0.0965 [kg/m3] | mass density, m1 = 0.2002 [kg/m3] | mass density, m1 = 0.292 [kg/m3] | mass density, m1 = 0.3986 [kg/m3] | mass density, m1 = 0.4988 [kg/m3] | speed of sound, m1 = 0.0965 [m/s] | speed of sound, m1 = 0.2002 [m/s] | speed of sound, m1 = 0.292 [m/s] | speed of sound, m1 = 0.3986 [m/s] | speed of sound, m1 = 0.4988 [m/s]
293.15 K | 1000.31 ± 0.31 | 1002.46 ± 0.31 | 1004.29 ± 0.32 | 1006.36 ± 0.34 | 1008.22 ± 0.36 | 1489.9 ± 2 | 1498 ± 2 | 1504.8 ± 2.1 | 1513.1 ± 2.1 | 1520.5 ± 2.2
303.15 K | 997.73 ± 0.31 | 999.86 ± 0.31 | 1001.67 ± 0.32 | 1003.69 ± 0.34 | 1005.54 ± 0.35 | 1514.9 ± 2 | 1521.8 ± 2 | 1528 ± 2.1 | 1535.1 ± 2.1 | 1541.7 ± 2.1

OCCOCCO [diethylene glycol] + O
Conditions | mass density, m1 = 0.09849 [kg/m3] | mass density, m1 = 0.1974 [kg/m3] | mass density, m1 = 0.295 [kg/m3] | mass density, m1 = 0.4101 [kg/m3] | mass density, m1 = 0.5006 [kg/m3] | speed of sound, m1 = 0.09849 [m/s] | speed of sound, m1 = 0.1974 [m/s] | speed of sound, m1 = 0.295 [m/s] | speed of sound, m1 = 0.4101 [m/s] | speed of sound, m1 = 0.5006 [m/s]
293.15 K | 999.65 ± 0.3 | 1001.03 ± 0.31 | 1002.36 ± 0.31 | 1003.86 ± 0.32 | 1004.99 ± 0.33 | 1487.7 ± 2 | 1493.1 ± 2 | 1498.1 ± 2 | 1504.1 ± 2.1 | 1508.3 ± 2.1
303.15 K | 997.07 ± 0.3 | 998.39 ± 0.31 | 999.64 ± 0.31 | 1001.05 ± 0.32 | 1002.15 ± 0.32 | 1513.1 ± 2 | 1517.6 ± 2 | 1522 ± 2 | 1526.9 ± 2 | 1530.6 ± 2.1

OCC(O)CO [glycerol] + O
Conditions | mass density, 293.15 K [kg/m3] | mass density, 298.15 K [kg/m3] | mass density, 303.15 K [kg/m3] | mass density, 308.15 K [kg/m3] | speed of sound, 293.15 K [m/s] | speed of sound, 298.15 K [m/s] | speed of sound, 303.15 K [m/s] | speed of sound, 308.15 K [m/s]
m1 = 0.01 | 998.45 ± 0.3 | 997.31 ± 0.3 | 995.87 ± 0.3 | 994.25 ± 0.3 | 1483.2 ± 2 | 1497 ± 2 | 1509.3 ± 2 | 1519.9 ± 2
m1 = 0.03 | 998.87 ± 0.3 | 997.71 ± 0.3 | 996.3 ± 0.3 | 994.68 ± 0.3 | 1484 ± 2 | 1497.8 ± 2 | 1510 ± 2 | 1520.6 ± 2
m1 = 0.05 | 999.29 ± 0.3 | 998.12 ± 0.3 | 996.72 ± 0.3 | 995.09 ± 0.3 | 1484.8 ± 2 | 1498.6 ± 2 | 1510.7 ± 2 | 1521.2 ± 2

OCCO [1,2-ethanediol] + O
Conditions | mass density, m1 = 0.09889 [kg/m3] | mass density, m1 = 0.1989 [kg/m3] | mass density, m1 = 0.2997 [kg/m3] | mass density, m1 = 0.3948 [kg/m3] | mass density, m1 = 0.5016 [kg/m3] | speed of sound, m1 = 0.09889 [m/s] | speed of sound, m1 = 0.1989 [m/s] | speed of sound, m1 = 0.2997 [m/s] | speed of sound, m1 = 0.3948 [m/s] | speed of sound, m1 = 0.5016 [m/s]
293.15 K | 999.06 ± 0.3 | 999.88 ± 0.3 | 1000.68 ± 0.31 | 1001.41 ± 0.31 | 1002.2 ± 0.31 | 1485.3 ± 2 | 1488.3 ± 2 | 1491.2 ± 2 | 1493.9 ± 2 | 1496.8 ± 2
303.15 K | 996.47 ± 0.3 | 997.26 ± 0.3 | 998.03 ± 0.31 | 998.73 ± 0.31 | 999.48 ± 0.31 | 1511.1 ± 2 | 1513.8 ± 2 | 1516.2 ± 2 | 1518.7 ± 2 | 1521.2 ± 2

O [water] + OCC(O)CO
m2 = 0
Conditions | speed of sound [m/s]
298.15 K | 1495.9 ± 2
303.15 K | 1508.5 ± 2
308.15 K | 1519.1 ± 2

O [water] + OCCO
Conditions | speed of sound [m/s]
303.15 K, m2 = 0 | 1508.5 ± 2

O [water] + OCCOCCOCCO
Conditions | speed of sound [m/s]
303.15 K, m2 = 0 | 1508.5 ± 2
